The values below come from patent publication US10870660B2, “Nitrogen-containing condensed ring compounds having dopamine D3 antagonistic effect” (Shionogi & Co., Ltd., priority 2016, dated 2020).

Assay [1] addresses human recombinant dopamine D2 receptor (Homo sapiens (Human), UniProt P14416). The assay is described as follows: Test of binding inhibition for the human dopamine D2 receptor ([3H]-Metylspiperone SPA binding). The settings on record: [3H]-Metylspiperone 1.2 nM, Jump-In HEK cell membranes, read-out: hD2_Ki. The procedure: Cell membranes: Jump-In HEK cell membranes expressing human recombinant dopamine D2 receptor (2 μg/well)
Buffer solution: 50 mM Tris-HCl (35409-45, Nacalai Tesque) (pH 7.4) containing 120 mM NaCl (31320-05, Nacalai Tesque), 1 mM MgCl2.6H2O (20909-55, Nacalai Tesque), 5 mM KCl (28514-75, Nacalai Tesque) and 2 mM CaCl2 (067-31, Nacalai Chemical, Ltd)
Radioligand: (final concentration) 1.2 nM [^3H]-Metylspiperone ([^3H—N-methyl-]-Metylspiperone, NET-856, 83.8 Ci/mmol, PerkinElmer)
(§1) Non-specific ligand: (final concentration) 10 μM Butaclamol [(+)-Butaclamol Hydrochioride, D033, Sigma]
(§2) SPA beads: SPA beads [WGA PVT SPA Scintillatiion Beads, RPNQ0001 (500 mg), RPNQ0060 (2 g), PerkinElmer] (0.2 mg/well)
(§3) Incubation time and temperature: 120 min at 25° C.
(§4) Butaclamol or the compounds of the present invention were weighed and DMSO was added to make a 10 mM solution. This solution was diluted to each concentration.
[^3H]-Metylspiperone was weighed and the buffer solution was added to make a 3.6 nM solution.
(§5) SPA beads were weighed and stirred in water to make a 50 mg/mL solution. Using this solution, a mixed solution with the cell membranes was prepared.
225 nL of the solutions of the non-specific ligand or the compounds of the present invention at each concentration (in case of vehicle, final concentration 0.3% DMSO) were added in each well of a 384-well white/clear bottom microplate (3706, Corning). Jump-In HEK Cell membranes (final reaction amount: 2 μg protein/well), SPA beads (final reaction amount: 0.2 mg/well) and the buffer were mixed and the mixed solution was left still for more than or equal to 1 h at 4° C. Then, 50 μL of the mixture was added to each well of the plate. In addition, 25 μL of 3.6 nM [^3H]-Metylspiperone (final concentration: 1.2 nM) was added to each well. The plate was sealed by putting TopSeal-A 96/384 well (6050185, PerkinElmer) on the top of the plate, mixed using stirring deaerator (Welltornado, FK-62, Sakaki) and incubated for 120 min at 25° C. After incubation, the radioactivity of [^3H]-Metylspiperone which was binded to D2 receptor was determined by liquid scintillation counter (1450 Microbeta, PerkinElmer) in each well. Non-specific binding was calculated based on the radioactivity of [^3H]-Metylspiperone in the presence of 10 μM non-labeled Butaclamol. The total binding was calculated using the radioactivity of [^3H]-Metylspiperone in the absence of the compounds of the present invention (Vehicle). The Ki values were calculated from dose-response curves.
(§6) Binding activities of the compounds of the present invention were calculated from the following Binding Inhibition Rate (%): Inhibition Rate (%)=[1−(c−a)(b−a)]×100(%) • a: Average cpm of non-specific binding • b: Average cpm of total binding • c: Cpm in the presence of each test compound

Assay [2] concerns the target human recombinant dopamine D3 receptor (Homo sapiens (Human), UniProt P35462). Description: Test of binding inhibition for the human dopamine D3 receptor ([3H]-Metylspiperone SPA binding). Conditions: [3H]-Metylspiperone 2 nM, Jump-In HEK cell membranes, read-out: hD3_Ki. The procedure: Cell membranes: Jump-In HEK cell membranes expressing human recombinant dopamine D3 receptor (4 μg/well)
as §1, §2, §3, §4
[^3H]-Metylspiperone was weighed and the buffer solution was added to make a 6 nM solution.
as §5
Jump-In HEK Cell membranes (final reaction amount: 4 μg/well), SPA beads (final reaction amount: 0.2 mg/well) and Tris-HCl buffer were mixed and the mixed solution was left still for more than 60 min at 4° C. Then, 50 μL of the mixture was added to each well of the plate. In addition, 25 μL of 6 nM [^3H]-Metylspiperone (final concentration: 2 nM) was added to each well. […] Non-specific binding was calculated based on the radioactivity of [^3H]-Metylspiperone in the presence of 10 μM non-labeled Butaclamol. The total binding was calculated based on the radioactivity of [^3H]-Metylspiperone in the absence of the compounds of the present invention (Vehicle). The Ki values were calculated from dose-response curves.
as §6

Chain of human recombinant dopamine D3 receptor (P35462 whole entry): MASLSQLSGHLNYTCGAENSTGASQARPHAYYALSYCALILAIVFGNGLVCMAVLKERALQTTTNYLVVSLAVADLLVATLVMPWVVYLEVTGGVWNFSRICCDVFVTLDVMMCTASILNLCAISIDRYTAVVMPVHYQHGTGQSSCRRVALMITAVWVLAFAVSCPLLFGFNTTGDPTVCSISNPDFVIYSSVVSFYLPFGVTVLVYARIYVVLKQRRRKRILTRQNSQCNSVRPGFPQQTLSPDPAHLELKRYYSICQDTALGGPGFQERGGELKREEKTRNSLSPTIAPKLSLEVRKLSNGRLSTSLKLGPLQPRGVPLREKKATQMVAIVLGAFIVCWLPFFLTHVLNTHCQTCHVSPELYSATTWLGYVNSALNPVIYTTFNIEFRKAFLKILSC
Chain of human recombinant dopamine D2 receptor (P14416 whole entry): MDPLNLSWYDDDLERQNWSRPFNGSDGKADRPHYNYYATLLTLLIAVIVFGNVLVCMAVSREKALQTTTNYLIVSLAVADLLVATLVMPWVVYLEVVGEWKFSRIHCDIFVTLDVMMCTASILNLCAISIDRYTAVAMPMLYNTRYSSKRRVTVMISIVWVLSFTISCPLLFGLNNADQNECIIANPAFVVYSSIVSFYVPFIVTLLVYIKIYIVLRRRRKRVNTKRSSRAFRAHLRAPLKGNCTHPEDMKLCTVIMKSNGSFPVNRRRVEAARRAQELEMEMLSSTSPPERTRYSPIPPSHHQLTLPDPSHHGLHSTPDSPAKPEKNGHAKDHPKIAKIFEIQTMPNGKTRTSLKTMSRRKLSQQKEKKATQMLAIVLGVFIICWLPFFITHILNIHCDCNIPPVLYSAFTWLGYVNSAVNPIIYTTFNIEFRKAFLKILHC

As to `Cc1ncc(CC(=O)N[C@H]2CC[C@H](CCN3CCc4sc(OCC(F)F)nc4C3)CC2)s1` [Compound I-107], the Ki stood at 370 nM in assay [1] and 0.82 nM in assay [2]. On to `COc1cc(CC(=O)N[C@H]2CC[C@H](CCN3CCc4sc(N5CC(F)(F)C5)nc4C3)CC2)on1` [III-578], for which the Ki in assay [1] is above 1700 nM. `O=C(N[C@H]1CC[C@H](CCN2CCc3cn(Cc4ccccc4)nc3C2)CC1)c1cccc2ncccc12` [Compound I-113]: the Ki is above 1700 nM in assay [1] and 4.7 nM in assay [2]. With `Cc1ncc(CC(=O)N[C@H]2CC[C@H](C(F)CN3CCc4ccc(OCC(F)(F)F)nc4CC3)CC2)s1` (some centres unmarked) [III-216], the Ki in assay [1] was above 1700 nM; in assay [2], 1.3 nM. For `Cn1cc2ccc(C(=O)N[C@H]3CC[C@H](CCN4CCc5nc(OCC(F)F)sc5CC4)CC3)cc2n1` [III-270], the values for the Ki in assay [1] and in assay [2] were 1100 nM and 0.6 nM, respectively. For `Cc1ncc(CC(=O)N[C@H]2CC[C@H](CCN3CCc4cn(CCC(F)(F)F)nc4CC3)CC2)s1` [II-088], the Ki is above 1900 nM in assay [1] and 7.4 nM in assay [2]. Consider `Cn1c(C#N)cc2c1CCN(CC[C@H]1CC[C@H](NC(=O)c3cccc4ncccc34)CC1)C2` [Compound I-052], for which the figures for the Ki in assay [1] and in assay [2] were 1100 nM and 1 nM, respectively. Turning to `Cc1nc(CC(=O)N[C@H]2CC[C@H](CCN3CCc4ccc(OCC(C)(F)F)nc4CC3)CC2)no1` [III-019], in assay [2], the Ki worked out at 0.14 nM. Consider `Cc1nnc(CC(=O)N[C@H]2CC[C@H](CCN3CCc4sc(CCC(F)(F)F)nc4C3)CC2)o1` [III-674], for which the Ki in assay [1] turned out to be 1100 nM; in assay [2], 1.1 nM. Regarding `Cc1ncc(CC(=O)N[C@H]2CC[C@H](CCN3CCc4ccc(OCC(C)F)nc4CC3)CC2)s1` (some centres unmarked) [III-203], the Ki in assay [1] was 1400 nM; in assay [2], 0.79 nM.

Turning to `Cc1nnc(CC(=O)N[C@H]2CC[C@](F)(CCN3CCc4ccc(OCC(F)(F)F)nc4CC3)CC2)o1` [III-082], the Ki worked out at 410 nM in assay [1] and 0.45 nM in assay [2]. For the molecule `Cc1nc(CC(=O)N[C@H]2CC[C@H](CCN3CCc4nc(CCC(F)(F)F)sc4CC3)CC2)no1` [II-019], the Ki in assay [1] is above 1800 nM; in assay [2], 2.3 nM.

In the case of `Cc1nc(CC(=O)N[C@H]2CC[C@](F)(CCN3CCc4nc(OCC(F)(F)F)sc4CC3)CC2)no1` [III-264], the Ki is above 1800 nM in assay [1] and 0.25 nM in assay [2].

On to `O=C(CCC(F)(F)F)N[C@H]1CC[C@H](CCN2CCc3nc(CCC(F)(F)F)sc3CC2)CC1` [II-018], for which the Ki in assay [1] was above 1800 nM; in assay [2], 2.7 nM. On to `Cc1ncc(/C=C/C(=O)N[C@H]2CC[C@H](CCN3CCc4nc(OCC(F)(F)F)sc4CC3)CC2)cn1` [II-048], for which the Ki in assay [1] was above 1700 nM; in assay [2], 0.82 nM.

Turning to `Cc1cc(CC(=O)N[C@H]2CC[C@H](CCN3CCc4nc(OCC(F)(F)F)sc4CC3)OC2)on1` [III-171], the Ki is above 1700 nM in assay [1] and 0.47 nM in assay [2]. Turning to `COc1cc(CC(=O)N[C@H]2CC[C@H](CCN3CCc4nc(OCC(F)(F)F)sc4CC3)OC2)on1` [III-199], the Ki in assay [2] is 0.2 nM. Regarding `Cc1ncccc1C(=O)N[C@H]1CC[C@H](CCN2CCc3nc(OCC(F)(F)F)sc3CC2)OC1` [III-182], the Ki in assay [2] amounted to 0.56 nM. For the molecule `Cc1cc(CC(=O)N[C@H]2CC[C@H](CCN3CCc4nc(OCC(F)F)sc4CC3)CC2)no1` [III-282], the Ki in assay [2] turned out to be 0.82 nM. For `Cn1cc(CC(=O)N[C@H]2CC[C@H](CCN3CCc4nc(OCC(F)(F)F)sc4CC3)CC2)cn1` [III-037], in assay [2], the Ki is 0.2 nM. Regarding `Cc1ncc(CC(=O)N[C@H]2CC[C@H](CCN3CCc4nc(OCC(F)(F)F)sc4CC3)CC2)s1` [II-053], in assay [1], the Ki was found to be 730 nM. `Cc1cc(OCC(=O)N[C@H]2CC[C@H](CCN3CCc4sc(N5CC(F)(F)C5)nc4C3)CC2)no1` [III-581]: the Ki in assay [1] was 810 nM. As for `Cn1cc2c(C(=O)N[C@H]3CC[C@H](CCN4CCc5ccc(OCC(C)(F)F)nc5CC4)CC3)cccc2n1` [III-027], in assay [1], the Ki worked out at 330 nM.

As for `Cc1ncc(CC(=O)N[C@H]2CC[C@H](CCN3CCc4nc(N(C)CC(F)(F)F)sc4CC3)CC2)s1` [II-084], the Ki in assay [1] is 510 nM.
